Results taken from ChEMBL document CHEMBL1201862, “PubChem BioAssay data set” (2004).
The source made the active and inactive calls.

What was measured:
[1] = target: Glutathione-S-transferase (Schistosoma japonicum, UniProt Q26513); assay: biotin-GST/anti-GST TR-FRET signal inhibitors, dose response, artefact control for Vif-APOBEC3G degradation inhibitor project, biochemical (AID 1117362); assay type: functional
[2] = target: Beta-adrenergic receptor kinase 1 (Homo sapiens, UniProt P25098); assay: aptamer displacement from bead-bound GRK2 – biochemical, cherry pick 1, bead flow cytometry, dose response (AID 504500)
[3] = target: NAD-dependent protein deacylase sirtuin-5, mitochondrial (Homo sapiens, UniProt Q9NXA8); assay: SIRT5 desuccinylase inhibitors, dose response, biochemical, fluorescence imaging, cherry-pick, set 5 (AID 720591);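 further: desuccinylation of succinyl peptide AMC substrate read as fluorescence after trypsin release; potency of inhibitors that lower fluorescence and may act on trypsin instead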
Kallikrein-7 = Kallikrein-7 (Homo sapiens, UniProt P49862); assay: Fluorescence Intensity-based biochemical primary high throughput dose response assay to identify activators of kallikrein-7 (K7) zymogen.
[4] = Vero cell cytotoxicity, dose response, cytotoxicity control for Vif-APOBEC3G degradation inhibitor project, Vero cells (AID 1117358); assay type: functional; conditions: Human immunodeficiency virus 1, Vero
[5] = target: T1, Methionyl-tRNA synthetase, putative (Trypanosoma brucei brucei, UniProt Q38C91); assay type: functional, Trypanosoma brucei brucei strain 927/4 GUTat10.1
T1 sequence (Q38C91 whole entry): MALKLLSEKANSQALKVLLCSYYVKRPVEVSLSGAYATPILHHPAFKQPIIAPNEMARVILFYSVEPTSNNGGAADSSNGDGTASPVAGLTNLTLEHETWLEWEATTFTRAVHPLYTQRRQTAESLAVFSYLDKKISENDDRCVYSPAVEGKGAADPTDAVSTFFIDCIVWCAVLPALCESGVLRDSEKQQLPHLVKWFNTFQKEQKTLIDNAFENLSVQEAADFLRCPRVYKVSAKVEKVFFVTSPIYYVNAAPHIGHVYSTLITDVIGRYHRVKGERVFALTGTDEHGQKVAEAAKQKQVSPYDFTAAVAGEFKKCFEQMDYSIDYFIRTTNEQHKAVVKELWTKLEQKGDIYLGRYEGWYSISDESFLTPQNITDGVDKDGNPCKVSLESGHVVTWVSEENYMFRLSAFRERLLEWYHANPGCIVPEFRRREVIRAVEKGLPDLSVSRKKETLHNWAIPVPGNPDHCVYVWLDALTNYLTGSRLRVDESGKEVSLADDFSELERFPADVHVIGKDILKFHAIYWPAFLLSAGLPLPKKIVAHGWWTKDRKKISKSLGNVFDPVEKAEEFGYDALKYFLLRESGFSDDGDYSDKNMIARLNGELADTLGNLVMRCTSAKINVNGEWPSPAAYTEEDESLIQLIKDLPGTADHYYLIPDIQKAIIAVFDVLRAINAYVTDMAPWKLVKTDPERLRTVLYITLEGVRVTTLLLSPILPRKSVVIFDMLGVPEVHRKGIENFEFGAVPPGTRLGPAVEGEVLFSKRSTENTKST

[6] = target: Disintegrin and metalloproteinase domain-containing protein 17 (Homo sapiens, UniProt P78536); assay: ADAM17 protease inhibitors, dose response, counter-screen for ADAM10 exosite inhibitor project, biochemical, quenched FRET substrate (AID 743253)
[7] = ADAM10 inhibitors, peptide cleavage, dose response, biochemical, QFRET (AID 743254);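 further: ADAM10 enzyme with the DM2 quenched FRET peptide as substrate; EDANS fluorescence gain as the protease cuts the substrate; inhibitor potency against ADAM10 proteolytic activity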
[8] = target: Intestinal-type alkaline phosphatase (Mus musculus, UniProt P24822); assay: PubChem AID 488785; assay type: functional
[9] = target: T2, Alkaline phosphatase, tissue-nonspecific isozyme (Homo sapiens, UniProt P05186); assay: TNAP enzyme inhibition by screening hits, dose response, selectivity assay for mouse IAP inhibitor project, biochemical, human TNAP, uHTS hits (AID 488906); assay type: functional
T2 sequence (P05186 whole entry): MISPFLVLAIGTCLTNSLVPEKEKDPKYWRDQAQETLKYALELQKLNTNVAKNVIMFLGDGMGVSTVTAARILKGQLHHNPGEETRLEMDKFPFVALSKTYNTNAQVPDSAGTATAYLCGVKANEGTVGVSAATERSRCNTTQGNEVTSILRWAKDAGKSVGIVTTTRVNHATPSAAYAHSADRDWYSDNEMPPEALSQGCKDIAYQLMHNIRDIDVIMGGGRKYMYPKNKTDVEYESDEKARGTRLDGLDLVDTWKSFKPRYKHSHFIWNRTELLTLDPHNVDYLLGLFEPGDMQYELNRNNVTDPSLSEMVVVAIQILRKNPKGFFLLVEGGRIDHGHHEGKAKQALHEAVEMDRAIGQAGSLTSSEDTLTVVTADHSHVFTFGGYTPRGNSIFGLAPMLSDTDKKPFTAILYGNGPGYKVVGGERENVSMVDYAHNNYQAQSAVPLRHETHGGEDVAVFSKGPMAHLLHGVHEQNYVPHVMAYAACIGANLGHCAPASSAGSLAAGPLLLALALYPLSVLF

[10] = target: T1, Methionyl-tRNA synthetase, putative; assay type: functional, Trypanosoma brucei brucei strain 927/4 GUTat10.1; remark: listed apart in the source
[11] = Counterscreen for inhibitors of Trypanosoma brucei methionyl tRNA synthetase (MetRS): Luminescence-based cell-based high throughput dose response assay to identify compounds that are cytotoxic to Jurkat human T lymphocyte cells.; assay type: functional
[12] = target: Intestinal-type alkaline phosphatase (Homo sapiens, UniProt P09923); assay: inhibition of human intestinal alkaline phosphatase – biochemical, dose response (AID 488876); assay type: functional
[13] = MITF Orthogonal Assay: MALME3 CTG Assay Measured in Cell-Based System Using Plate Reader - 2084-04_Inhibitor_Dose_DryPowder_Activity_Set6.; assay type: functional; conditions: MALME-3
[14] = SK-MEL-5 parental cell viability reduction, dose response, orthogonal assay for MITF inhibitor project, CellTiter-Glo luminescence, dry powder, set 8 (AID 651586); assay type: functional, cell-based
[15] = A375 melanoma cell viability loss, dose response, counter-screen for MITF inhibitor project, CellTiter-Glo luminescence, dry powder, set 4 (AID 624364); assay type: functional, cell-based; conditions: A-375;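 further: A375 melanoma cells are MITF independent so this is a counter screen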
[16] = A375 melanoma cell cytotoxicity, dose response, counter-screen for MITF inhibitor project, CellTiter-Glo luminescence, dry powder, set 6 (AID 624488); assay type: functional, cell-based; conditions: A-375
[17] = MITF Measured in Cell-Based System Using Plate Reader - 2084-01_Inhibitor_Dose_DryPowder_Activity_Set7.; assay type: functional
[18] = TRPM1 promoter luciferase reporter signal decrease, dose response, MITF inhibitor project, cell-based, SK-MEL-5, dry powder, set 9 (AID 651588); assay type: functional
[19] = MALME3 melanoma cell viability reduction, dose response, orthogonal assay for MITF inhibitor project, CellTiter-Glo luminescence, dry powder, set 5 (AID 651584); assay type: functional, cell-based; conditions: MALME-3
[20] = A375 melanoma cell viability loss, dose response, counter-screen for MITF modulator project, CellTiter-Glo luminescence, dry powder, set 9 (AID 651591); assay type: functional, cell-based; conditions: A-375
[21] = MITF Orthogonal Assay: SK-MEL-5 CTG Assay Measured in Cell-Based System Using Plate Reader - 2084-02_Inhibitor_Dose_DryPowder_Activity_Set5.; assay type: functional
[22] = A375 melanoma cell cytotoxicity, dose response, counter-screen for MITF inhibitor project, CellTiter-Glo luminescence, dry powder, set 7 (AID 624490); assay type: functional, cell-based; conditions: A-375
[23] = SK-MEL-5 parental line viability, dose response, MITF inhibitor project, cell-based, CellTiter-Glo, dry powder, set 6 (AID 624429); assay type: functional
[24] = A375 melanoma cell cytotoxicity, dose response, counter-screen for MITF inhibitor project, CellTiter-Glo luminescence, dry powder, set 2 (AID 624489); assay type: functional, cell-based; conditions: A-375;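 further: actives are compounds lowering A375 viability meaning general cytotoxicity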
[25] = MITF Measured in Cell-Based System Using Plate Reader - 2084-01_Inhibitor_Dose_DryPowder_Activity_Set6.; assay type: functional
[26] = P. falciparum Dd2 growth inhibitors, dose response, SYBR Green, dry powder samples, set 9 (AID 1159568); assay type: functional, cell-based
[27] = HepG2 cell cytotoxicity, dose response, cytotoxicity control, plate reader, dry powder samples (AID 1159569); assay type: functional, cell-based;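 further: inhibitor potency with signal falling toward the positive control level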
[28] = P. falciparum Dd2 growth inhibitors, dose response, SYBR Green, cherry-picked samples (AID 1159567); assay type: functional, cell-based
[29] = HepG2 cell cytotoxicity, dose response, cytotoxicity control, cherry-picked samples (AID 1159577); assay type: functional, cell-based
[30] = P. falciparum 3D7-ScDHODH growth inhibitors, dose response, SYBR Green, dry powder samples (AID 1159570); assay type: functional, cell-based;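 further: parasite growth measured after 72 hours of compound exposure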
[31] = P. falciparum Dd2 growth inhibitors, dose response, SYBR Green, dry powder samples (AID 1159566); assay type: functional, cell-based;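 further: potency for growth inhibition with lower SYBR green DNA signal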
[32] = P. falciparum ATP4 D1247Y mutant growth inhibitors, dose response, NITD609-resistant line, SYBR Green, dry powder (AID 1159571); assay type: functional, cell-based;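 further: parasites synchronized at ring stage by sorbitol before testing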
[33] = Mtb BioA inhibitors by displacement, dose response, biochemical, coupled fluorescence displacement, 20-point, dry powder (AID 743357); assay type: functional
[34] = HepG2 cell cytotoxicity, dose response, cytotoxicity control, luminescence, dry powder, set 9 (AID 743358); assay type: functional, cell-based
[35] = Dose-response inhibition of insulin secretion in a rat insulinoma line at 5 mM glucose (AID 1117331); assay type: functional, cell-based; conditions: INS-1E
[36] = half-maximal inhibitory concentration for glucagon-like peptide-1 release, STC-1 cell line, dose-response (AID 1117345); assay type: functional, cell-based
cells = assay type: functional, cell-based; conditions: INS-1E
[37] = microbe, parasite or virus in culture; assay type: functional; conditions: Mycobacterium tuberculosis
[38] = Glucagon-like peptide 1 release potency, NCI-H716 cell line, dose-response, half-maximal inhibitory concentration (AID 1117344); assay type: functional, cell-based
[39] = Concentration-dependent survival of SW480 colon cancer line, luminescence detection with CellTiter-Glo, half-maximal inhibitory concentration (AID 1117338); assay type: functional
[40] = cytotoxicity toward HCT116 cells – cell-based, CellTiter-Glo luminescence, IC50, dose response (AID 1117332); assay type: functional; conditions: HCT-116
[41] = CellTiter-Glo luminescent dose response of DLD-1 viability loss (AID 1117352); assay type: functional
Cytochrome P450 2D6 = Cytochrome P450 2D6 (Homo sapiens, UniProt P10635);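 further: CYP2D6 member of a cytochrome P450 panel assay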
[42] = RKO cell viability reduction, dose response, CellTiter-Glo luminescence (AID 1117322); assay type: functional
[43] = SNU-C1 cell viability reduction, dose response, CellTiter-Glo luminescence (AID 1117323); assay type: functional, cell-based
[44] = cytotoxicity toward Colo320 cells – cell-based, CellTiter-Glo luminescence, IC50, dose response (AID 1117334); assay type: functional; conditions: COLO 320
Cytochrome P450 2C19 = Cytochrome P450 2C19 (Homo sapiens, UniProt P33261); assay: Cytochrome panel assay with activity outcomes. Panel member name: p450-cyp2c19 Compounds with AC50 equal or less than 10 uM are considered active; assay type: functional; conditions: read-out: AC50
[45] = cytotoxicity toward HT-29 cells – cell-based, CellTiter-Glo luminescence, IC50, dose response (AID 1117330); assay type: functional
[46] = HCT116 cell viability decrease, GSK3B pretreatment – CellTiter-Glo, IC50, dose response (AID 1117339); assay type: functional; conditions: HCT-116
[47] = target: Lysine-specific demethylase 4C (Homo sapiens, UniProt Q9H3R0); assay: GASC-1 (JMJD2C) histone demethylase inhibitors, dose response, biochemical, DELFIA europium, cherry-picked samples (AID 488835); assay type: functional
Chain of Lysine-specific demethylase 4C (Q9H3R0 whole entry): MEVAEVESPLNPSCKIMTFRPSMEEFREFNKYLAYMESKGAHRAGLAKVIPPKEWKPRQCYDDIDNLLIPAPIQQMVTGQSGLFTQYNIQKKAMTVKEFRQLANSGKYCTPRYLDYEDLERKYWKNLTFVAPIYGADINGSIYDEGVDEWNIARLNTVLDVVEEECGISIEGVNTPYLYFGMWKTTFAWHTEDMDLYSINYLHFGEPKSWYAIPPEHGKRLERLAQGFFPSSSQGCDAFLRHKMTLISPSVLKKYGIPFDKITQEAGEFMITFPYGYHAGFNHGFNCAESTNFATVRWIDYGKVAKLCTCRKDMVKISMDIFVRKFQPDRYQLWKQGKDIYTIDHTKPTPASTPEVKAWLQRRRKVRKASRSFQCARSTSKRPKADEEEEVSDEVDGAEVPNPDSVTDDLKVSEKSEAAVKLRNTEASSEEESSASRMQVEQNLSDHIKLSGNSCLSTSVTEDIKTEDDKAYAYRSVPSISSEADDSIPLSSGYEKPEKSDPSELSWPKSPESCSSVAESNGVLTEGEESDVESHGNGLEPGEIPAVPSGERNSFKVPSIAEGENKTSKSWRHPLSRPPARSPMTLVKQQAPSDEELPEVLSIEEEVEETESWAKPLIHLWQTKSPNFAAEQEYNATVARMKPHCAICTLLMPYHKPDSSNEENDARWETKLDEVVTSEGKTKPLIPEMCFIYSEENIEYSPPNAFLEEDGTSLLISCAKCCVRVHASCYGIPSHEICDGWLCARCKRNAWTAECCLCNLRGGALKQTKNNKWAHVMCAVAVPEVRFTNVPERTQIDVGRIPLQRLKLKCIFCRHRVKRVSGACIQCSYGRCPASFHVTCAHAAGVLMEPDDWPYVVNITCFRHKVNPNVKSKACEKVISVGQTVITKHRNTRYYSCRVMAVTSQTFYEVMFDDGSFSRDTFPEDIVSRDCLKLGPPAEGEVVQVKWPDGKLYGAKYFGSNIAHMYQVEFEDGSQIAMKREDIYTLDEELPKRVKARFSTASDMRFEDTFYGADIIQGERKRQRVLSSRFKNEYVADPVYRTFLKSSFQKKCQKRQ

Chain of Intestinal-type alkaline phosphatase (Mus musculus, UniProt P24822) (P24822 whole entry): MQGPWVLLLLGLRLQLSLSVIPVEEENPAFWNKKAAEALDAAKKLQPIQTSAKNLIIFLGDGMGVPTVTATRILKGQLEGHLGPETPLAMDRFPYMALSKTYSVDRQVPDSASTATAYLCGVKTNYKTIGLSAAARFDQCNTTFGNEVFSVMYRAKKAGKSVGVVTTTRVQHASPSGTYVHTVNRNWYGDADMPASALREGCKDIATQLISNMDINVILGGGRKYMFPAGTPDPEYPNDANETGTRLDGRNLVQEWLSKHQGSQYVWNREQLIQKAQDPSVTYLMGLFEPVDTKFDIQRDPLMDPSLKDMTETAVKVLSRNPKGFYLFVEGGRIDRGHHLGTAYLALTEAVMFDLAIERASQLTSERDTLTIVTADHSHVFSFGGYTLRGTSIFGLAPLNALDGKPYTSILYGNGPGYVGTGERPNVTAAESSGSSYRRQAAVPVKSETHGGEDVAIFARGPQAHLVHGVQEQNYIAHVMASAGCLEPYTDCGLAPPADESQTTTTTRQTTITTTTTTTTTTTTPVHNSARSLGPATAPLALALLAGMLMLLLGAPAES
Chain of Intestinal-type alkaline phosphatase (Homo sapiens, UniProt P09923) (P09923 whole entry): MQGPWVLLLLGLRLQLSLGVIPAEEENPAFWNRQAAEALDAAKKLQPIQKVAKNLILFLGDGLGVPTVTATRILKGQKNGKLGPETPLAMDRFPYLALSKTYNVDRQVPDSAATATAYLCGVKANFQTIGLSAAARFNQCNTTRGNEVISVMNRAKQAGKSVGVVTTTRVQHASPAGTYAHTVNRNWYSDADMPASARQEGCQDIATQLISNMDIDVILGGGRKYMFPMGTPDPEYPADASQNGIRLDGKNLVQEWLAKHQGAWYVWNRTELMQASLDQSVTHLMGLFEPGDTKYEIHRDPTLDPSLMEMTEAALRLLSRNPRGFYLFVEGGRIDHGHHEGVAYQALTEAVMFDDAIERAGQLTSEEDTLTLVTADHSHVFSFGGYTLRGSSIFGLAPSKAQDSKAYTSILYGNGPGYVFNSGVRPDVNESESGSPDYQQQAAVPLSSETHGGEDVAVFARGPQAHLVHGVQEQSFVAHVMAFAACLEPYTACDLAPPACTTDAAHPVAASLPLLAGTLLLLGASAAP
Chain of Cytochrome P450 2D6 (P10635 whole entry): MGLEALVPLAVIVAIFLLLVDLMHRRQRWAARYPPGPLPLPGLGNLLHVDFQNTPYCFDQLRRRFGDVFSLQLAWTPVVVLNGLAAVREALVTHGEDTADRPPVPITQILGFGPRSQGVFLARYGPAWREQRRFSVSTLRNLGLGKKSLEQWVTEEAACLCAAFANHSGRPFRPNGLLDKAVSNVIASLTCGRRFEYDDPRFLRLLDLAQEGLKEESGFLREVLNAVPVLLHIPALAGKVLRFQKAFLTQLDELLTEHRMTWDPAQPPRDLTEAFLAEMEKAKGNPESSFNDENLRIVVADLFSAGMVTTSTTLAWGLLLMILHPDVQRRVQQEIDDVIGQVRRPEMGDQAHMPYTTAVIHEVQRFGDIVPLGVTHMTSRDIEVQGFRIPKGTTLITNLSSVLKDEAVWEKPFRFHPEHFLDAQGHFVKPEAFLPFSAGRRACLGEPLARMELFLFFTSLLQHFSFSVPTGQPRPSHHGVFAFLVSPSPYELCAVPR
Chain of Kallikrein-7 (P49862 whole entry): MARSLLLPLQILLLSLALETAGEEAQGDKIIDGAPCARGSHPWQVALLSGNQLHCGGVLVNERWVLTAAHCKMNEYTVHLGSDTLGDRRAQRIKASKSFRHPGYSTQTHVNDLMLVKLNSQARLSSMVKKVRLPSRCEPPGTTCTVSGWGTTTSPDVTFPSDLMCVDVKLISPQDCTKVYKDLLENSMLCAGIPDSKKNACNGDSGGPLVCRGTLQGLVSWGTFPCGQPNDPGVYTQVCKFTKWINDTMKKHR
Chain of Glutathione-S-transferase (Q26513 whole entry): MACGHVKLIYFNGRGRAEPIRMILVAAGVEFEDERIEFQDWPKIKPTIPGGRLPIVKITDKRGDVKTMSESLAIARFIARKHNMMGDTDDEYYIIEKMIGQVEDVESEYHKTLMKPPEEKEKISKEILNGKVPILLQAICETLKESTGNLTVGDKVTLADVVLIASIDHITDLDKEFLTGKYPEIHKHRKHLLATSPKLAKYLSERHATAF
Chain of NAD-dependent protein deacylase sirtuin-5, mitochondrial (Q9NXA8 whole entry): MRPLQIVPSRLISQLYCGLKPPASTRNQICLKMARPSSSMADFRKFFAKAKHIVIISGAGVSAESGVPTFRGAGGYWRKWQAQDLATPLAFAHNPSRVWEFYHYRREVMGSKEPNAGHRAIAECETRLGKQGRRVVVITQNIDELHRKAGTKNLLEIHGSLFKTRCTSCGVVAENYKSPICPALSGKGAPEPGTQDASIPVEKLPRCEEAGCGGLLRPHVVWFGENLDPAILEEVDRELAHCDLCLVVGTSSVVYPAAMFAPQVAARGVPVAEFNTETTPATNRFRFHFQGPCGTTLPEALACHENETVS
Chain of Disintegrin and metalloproteinase domain-containing protein 17 (P78536 whole entry, the tested form may be a part): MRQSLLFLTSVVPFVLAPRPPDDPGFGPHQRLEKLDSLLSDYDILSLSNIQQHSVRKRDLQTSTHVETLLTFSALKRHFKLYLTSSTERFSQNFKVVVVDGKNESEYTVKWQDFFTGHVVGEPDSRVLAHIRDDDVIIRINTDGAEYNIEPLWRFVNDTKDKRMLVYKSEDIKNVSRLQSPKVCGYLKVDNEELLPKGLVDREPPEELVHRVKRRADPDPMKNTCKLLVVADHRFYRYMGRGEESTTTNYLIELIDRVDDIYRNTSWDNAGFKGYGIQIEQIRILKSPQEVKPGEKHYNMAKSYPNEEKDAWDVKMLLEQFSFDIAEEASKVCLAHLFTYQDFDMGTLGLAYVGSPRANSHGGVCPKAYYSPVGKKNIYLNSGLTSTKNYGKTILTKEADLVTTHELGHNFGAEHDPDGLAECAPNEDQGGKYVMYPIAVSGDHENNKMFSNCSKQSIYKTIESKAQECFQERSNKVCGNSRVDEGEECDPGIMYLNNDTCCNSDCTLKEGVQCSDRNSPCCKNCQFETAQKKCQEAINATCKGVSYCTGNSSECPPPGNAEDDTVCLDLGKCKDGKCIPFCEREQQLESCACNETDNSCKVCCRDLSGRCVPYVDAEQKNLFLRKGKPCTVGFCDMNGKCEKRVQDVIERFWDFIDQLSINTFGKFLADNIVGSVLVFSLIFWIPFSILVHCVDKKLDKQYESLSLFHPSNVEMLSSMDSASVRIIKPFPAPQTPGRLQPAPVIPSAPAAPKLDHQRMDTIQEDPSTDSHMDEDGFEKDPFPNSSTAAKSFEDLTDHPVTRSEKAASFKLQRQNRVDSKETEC
Chain of Cytochrome P450 2C19 (P33261 whole entry): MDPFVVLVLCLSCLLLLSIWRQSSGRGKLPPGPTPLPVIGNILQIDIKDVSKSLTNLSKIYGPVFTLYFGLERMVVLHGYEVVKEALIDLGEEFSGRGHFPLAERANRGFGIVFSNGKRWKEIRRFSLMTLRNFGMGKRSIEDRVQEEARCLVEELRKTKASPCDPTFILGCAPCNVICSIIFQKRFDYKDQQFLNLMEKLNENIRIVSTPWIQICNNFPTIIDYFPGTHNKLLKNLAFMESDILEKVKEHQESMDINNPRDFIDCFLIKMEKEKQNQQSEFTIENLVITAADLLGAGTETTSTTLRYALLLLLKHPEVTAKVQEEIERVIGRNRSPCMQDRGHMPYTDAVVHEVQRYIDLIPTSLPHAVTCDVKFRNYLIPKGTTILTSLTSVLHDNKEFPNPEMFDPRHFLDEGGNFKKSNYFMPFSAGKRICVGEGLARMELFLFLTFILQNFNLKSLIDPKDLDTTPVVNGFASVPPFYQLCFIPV

C=C(C)C(=O)Nc1cccc(C2=NOC3(C2)C[C@@H](C(N)=O)N(C(=O)c2cc([N+](=O)[O-])cc([N+](=O)[O-])c2)C3)c1 (some centres undefined)
inactive: EC50 [2] 10.6 µM
active: IC50 [1] > 100 µM

CCOC(=O)c1cnc(-n2nc(C)cc2C)nc1Oc1ccccc1F
inactive: AC50 [3] > 30 µM

CCN1CCN(C(=O)COc2ccc3c(c2)C(=O)CC2(CCN(C(C)=O)CC2)O3)CC1
active: EC50 (Kallikrein-7) > 2.58 µM

O=C(NCCc1ccc(Cl)cc1)C1CCN(C(=O)c2sccc2-n2cccc2)CC1
active: CC50 [4] > 40 µM

CCc1cc(Cn2nc(-c3ccccc3)cc2C(=O)NCc2cccc(Br)c2)on1
inactive: IC50 [6] > 69.5 µM | IC50 [7] > 69.5 µM | IC50 [11] 83.3 µM | IC50 [12] > 100 µM
active: IC50 [5] 1.66 µM | IC50 [8] 12.9 µM | IC50 [9] 54.9 µM | IC50 [10] 2.93 µM

CCN1CCN(C2=C(NC(=O)c3ccccc3)C(=O)c3ccccc3C2=O)CC1
active: AC50 [13] 5.64 µM | AC50 [14] 9.73 µM | AC50 [15] 26.7 µM | AC50 [16] 15.8 µM | AC50 [17] 729 nM | AC50 [18] 1.72 µM | AC50 [19] 5.64 µM | AC50 [20] 27.3 µM | AC50 [21] 6.95 µM | AC50 [22] 10.1 µM | AC50 [23] 9.53 µM | AC50 [24] 11.2 µM | AC50 [25] 523 nM

COc1ccc2c3c([nH]c2c1)[C@H](CO)N(Cc1ccccc1)CC31CN(C(=O)c2ccccn2)C1
active: AC50 [26] 6.79 µM

C[C@H]1CN([C@@H](C)CO)C(=O)c2c(c3ccccc3n2C)-c2ccccc2CO[C@H]1CN(C)Cc1ccc(-c2ccccc2)cc1
inactive: AC50 [29] > 39 µM
active: AC50 [27] 28.9 µM | AC50 [28] 2.64 µM | AC50 [30] 3.14 µM | AC50 [31] 1.54 µM | AC50 [32] 2.1 µM

CC(C)NC(=O)N1CC[C@@H]2[C@@H](CO)N(C)c3ccc(-c4cccc(F)c4)cc3[C@@H]21
inactive: AC50 [34] > 52 µM
active: AC50 [33] 11.8 µM

Clc1ccc2c(c1)CCc1cccnc1C2=C1CCNCC1 [DESLORATADINE]
inactive: IC50 [35] 7.11 µM | IC50 [36] > 40 µM | IC50 (cells) > 33.3 µM | IC50 [38] > 40 µM
active: CC50 [37] 32.9 µM

N#CC(C#N)=Cc1ccc(O)c(O)c1 [TYRPHOSTIN 23]
inconclusive: AC50 (Cytochrome P450 2D6) 20 µM | AC50 (Cytochrome P450 2C19) 15.8 µM
inactive: IC50 [39] > 20 µM | IC50 [40] > 20 µM | IC50 [41] > 20 µM | IC50 [43] > 20 µM | IC50 [44] 6.74 µM | IC50 [45] > 20 µM | IC50 [12] > 100 µM | IC50 [46] > 20 µM
active: IC50 [8] 4.22 µM | IC50 [42] 3.78 µM | IC50 [9] 9.97 µM | AC50 [47] 10.8 µM
